Results as given in patent publication US9132203B2, “Complex and contrast agent for photoimaging using the same” (CANON KABUSHIKI KAISHA, priority 2010, dated 2015).

How the values were obtained:
[1] = Absorption spectrum / absorbance at 780 nm with a spectrophotometer; assay type: physicochemical; settings: ICG 0.5 mg/mL, gelatin 40 mg/mL; FIG. 2, FIG. 5
Experimental: The absorption spectrum of the obtained gelatin-ICG complex 1 was measured with a spectrophotometer (Beckman Coulter, Inc.).
The absorption spectrum and the absorbance at 780 nm of the gelatin-ICG complex 1 are illustrated in FIGS. 2 and 3, respectively. The absorption spectrum and the absorbance at 780 nm of ICG are also illustrated in FIGS. 2 and 3, respectively, as a comparative example.
The gelatin-ICG complex 1, 3, 4, 5, or 6 (final concentration, 40 or 100 mg/mL) and an ICG solution (final concentration, 0.5 mg/mL) were mixed to obtain a gelatin-ICG complex.
The complexes and the mixtures were prepared at final concentrations of ICG and a gelatin of 0.5 mg/mL and 40 mg/mL, respectively.
An ICG solution (final concentration, 0.1 mg/mL) and a gelatin (weight-average molecular weight, 10,000; final concentration, 100 m g/mL) were mixed to obtain a mixture (gelatin-ICG mixture) of a gelatin and ICG. The absorption spectrum of the obtained gelatin-ICG mixture was measured with a spectrophotometer. The results are illustrated in FIG. 19.

[2] = Stability: absorption spectrum with time in PBS or PBS containing albumin at 37° C.; assay type: physicochemical
Experimental: To evaluate stability of the gelatin-ICG complex 1, the gelatin-ICG complex 1 was allowed to stand in PBS (phosphate buffered saline) or in PBS containing albumin (40 mg/mL) at 37° C., and the absorption spectrum was measured with time.

[3] = system: cancer-bearing mouse having a cancer site in the left hindlimb; experiment: In vivo kinetics by fluorescent imaging in cancer-bearing mouse; settings: caudal vein dosing, ICG 0.5 mg/ml; FIG. 17A-C, 18A
Experimental: After the gelatin-ICG complex 1 was dosed from the caudal vein of a cancer-bearing mouse having a cancer site in the left hindlimb, images were taken over time with a fluorescent imaging apparatus (GE Healthcare), and in vivo kinetics of the gelatin-ICG complex 1 were evaluated.
Furthermore, as a comparative example, ICG alone at the same concentration (0.5 mg/ml) was intravenously dosed to a cancer-bearing mouse, and a similar evaluation was performed. Changes with time in the fluorescent imaging after dosing the gelatin-ICG complex 1 are illustrated in FIG. 17A. Changes with time after dosing ICG alone are illustrated in FIG. 17B. Changes with time in the fluorescence intensity in these cancer tissues are illustrated in FIG. 17C.
A gelatin-ICG complex 7 including a gelatin derivative 7 (DSPE 67% introduced) fluorescently labeled with Cy5.5 and ICG was prepared and dosed to a cancer-bearing mouse in the same manner as in Example 15 to evaluate in vivo kinetics of the gelatin derivative 7 itself. Changes with time in the fluorescent imaging are illustrated in FIG. 18A. Furthermore, ICG alone at the same concentration was dosed to a cancer-bearing mouse as a comparative example. Changes with time in the fluorescent imaging are illustrated in FIG. 18B.

CC1(C)C(/C=C/C=C/C=C/C=C2/N(CCCCS(=O)(=O)[O-])c3ccc4ccccc4c3C2(C)C)=[N+](CCCCS(=O)(=O)[O-])c2ccc3ccccc3c21.[Na+] [ICG, indocyanine green]
absorption spectrum (associate around 700 nm, monomer around 780 nm) [1]: absorbance on the long wavelength side was low
changes with time in absorption spectrum / absorbance (λmax) ([2]; PBS containing albumin (40 mg/mL)): stability was slightly inferior as compared with the stability of the gelatin-ICG complex 1
changes with time in absorption spectrum / absorbance (λmax) ([2]; PBS without albumin): changed greatly with time
distribution of ICG to cancer tissue, fluorescence with time [3]: distributed to the cancer tissue temporarily after dosing ICG alone and eliminated with time
